Results taken from patent US20230321104A1, “USE OF PYRIDO[1,2-A]PYRIMIDINONE COMPOUND IN TREATING PERIPHERAL T CELL LYMPHOMA” (CHIA TAI TIANQING PHARMACEUTICAL GROUP CO., LTD., priority 2020, published 2023).

Test system: relapsed/refractory peripheral T-cell lymphoma (PTCL)
Assay: Clinical trials on peripheral T-cell lymphoma
Assay type: in vivo, human
Conditions: for SPD (sum of products of maximum vertical diameters of multiple lesions): baseline 717 mm
Description: 2.1 Administration Regimen • Method of administration: orally administered once daily, 15 mg or 20 mg each time, with 21 consecutive days of administration as one cycle. • Drug: tablet of the compound of formula I, 5 mg or 20 mg.
2.2 Enrollment Criteria • 1) Histopathologically confirmed relapsed/refractory peripheral T-cell lymphoma (PTCL), including four subtypes: peripheral T-cell lymphoma, not otherwise specified (PTCL-NOS); angioimmunoblastic T-cell lymphoma (AITL); anaplastic large cell lymphoma (ALCL); and extranodal NK/T cell lymphoma (NKTCL), nasal type; • 2) Has previously received at least first-line systemic treatment regimen, had disease progression during or after the most recent treatment, or had no objective response after adequate treatment; • 3) At least one measurable target lesion present (evaluated according to the Lugano evaluation criteria, 2014 edition); • 4) Age ≥18 years; ECOG (PS) score: 0-2; expected survival time ≥3 months; • 5) Main organ functions in the screening phase meet the following criteria:
Criteria for Blood Routine Examination (No Growth Factor Used or No Blood Transfusion Conducted within 14 Days): • Absolute neutrophil count (ANC)≥1.0×10^9/L; • Lymphocyte count (LYM)≥0.5×10^9/L; • CD4+ T lymphocyte count≥0.2×10^9/L; • Platelet (PLT)≥75×10^9/L (for patients with lymphoma bone marrow infiltration, ≥50×10^9/L acceptable); • Hemoglobin (Hb)≥80 g/L;

[1] = patients with peripheral T-cell lymphoma, oral once daily 15 mg or 20 mg

COc1ncc(-c2ccc3ncc(OCCN(C)C)c(=O)n3c2)cc1NS(=O)(=O)c1ccc(F)cc1Cl [compound of formula I]
objective response rate (ORR) (6 enrolled patients with peripheral T-cell lymphoma (3/6), oral once daily 15 mg or 20 mg, 21-day cycle, Lugano 2014 criteria): 50% | SPD (sum of products of maximum vertical diameters of multiple lesions) (Case 1, ALK negative anaplastic large cell lymphoma, 15 mg each day, after 2 cycles of medication): 495 mm | overall therapeutic effect (Case 1, ALK negative anaplastic large cell lymphoma, 15 mg each day, after 4 cycles): complete response (CR) | new lesion (Case 1, 15 mg each day, after 4 cycles): no new lesion was found | SUVmax of the highest uptake lesion, the left parotid gland area (PET-CT) (Case 1, 15 mg each day, after 4 cycles of medication, baseline 7.0): 1.5 | SPD (sum of products of maximum vertical diameters of multiple lesions) (Case 1, 15 mg each day, after 4 cycles of medication): 409 mm | therapeutic effect (Case 2, extranodal NK/T cell lymphoma, nasal type, 15 mg each day, after 2 cycles of treatment): partial response (PR) | SPD of measurable target lesions (enhanced MRI) (Case 2, extranodal NK/T cell lymphoma, nasal type, 15 mg each day, after 2 cycles of treatment, before treatment 280 mm): 117 mm | new lesion (Case 2, 15 mg each day, after 2 cycles of treatment): no new lesion was found | decrease of SPD (Case 2, 15 mg each day, after 2 cycles of treatment, versus 280 mm before treatment): 58.2% | safety in treatment [1]: good safety | therapeutic effect on peripheral T-cell lymphoma [1]: good therapeutic effect
